≈ marks a conversion by molar mass, not a printed value. Like-named read-outs stand apart in the source and are kept apart here.
How the values were obtained:
[1] = physchem; assay type: physicochemical; conditions: pH 7.4
[2] = in vivo; conditions: female, C57BL/6j, mouse; for Vd / clearance / half-life: iv; for Cmax / Tmax: po
[3] = system: Memb.; Nucleus; Mitoch.; assay type: cell-based
[4] = molecular target: CYP 3A4 (Homo sapiens, UniProt P08684); experiment: biochemical
[5] = molecular target: T1, InhA (Mycobacterium tuberculosis, UniProt P9WGR1); experiment: biochemical
[6] = system: M. tuberculosis H37Rv; experiment: microbe, parasite or virus in culture; assay type: cell-based; conditions: Mycobacterium tuberculosis, read-out: Mtb intracell MIC
[7] = assay type: in vivo, C57BL/6 mice; conditions: mice
[8] = mice
[9] = system: M. tuberculosis H37Rv; experiment: microbe, parasite or virus in culture; assay type: cell-based; conditions: Mycobacterium tuberculosis, read-out: Mtb MIC
[10] = molecular target: hERG potassium channel (Homo sapiens, UniProt Q12809); experiment: cell-based
[11] = system: M. tuberculosis H37Rv; conditions: acute model
[12] = genetic toxicity
[13] = assay type: in vitro ADME; conditions: mouse liver microsomes
[14] = system: GFP expressing MTB; experiment: Single-cell time-lapse imaging in microfluidic device; assay type: cell-based, M. tuberculosis
[15] = assay type: in vitro ADME; conditions: human liver microsomes
[16] = system: HepG2 mammalian cells; assay type: cell-based; conditions: human
[17] = system: panel of Gram-positive and Gram-negative organisms; experiment: General antimicrobial activity assay; assay type: cell-based; conditions: read-out: Antibacterial panel (MIC)
[18] = molecular target: human FAS (Homo sapiens, UniProt P49327); experiment: Selectivity against human FAS; assay type: biochemical
[19] = molecular target: T1, InhA; conditions: steady-state competition experiments
[20] = system: M. bovis BCG; assay type: cell-based
[21] = system: M. tuberculosis; conditions: chronic model, 25 mg/kg, 2-month treatment
[22] = 5 μM, propidium iodide end point

T1 sequence (P9WGR1 whole entry, looked up): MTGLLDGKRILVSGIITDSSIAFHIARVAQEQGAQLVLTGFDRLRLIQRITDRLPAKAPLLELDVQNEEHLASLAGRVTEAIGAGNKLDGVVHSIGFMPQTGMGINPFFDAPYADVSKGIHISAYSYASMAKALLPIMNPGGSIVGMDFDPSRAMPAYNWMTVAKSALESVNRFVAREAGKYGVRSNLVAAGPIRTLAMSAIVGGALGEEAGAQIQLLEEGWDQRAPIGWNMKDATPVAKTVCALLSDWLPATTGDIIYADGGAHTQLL
CYP 3A4, sequence (P08684 whole entry): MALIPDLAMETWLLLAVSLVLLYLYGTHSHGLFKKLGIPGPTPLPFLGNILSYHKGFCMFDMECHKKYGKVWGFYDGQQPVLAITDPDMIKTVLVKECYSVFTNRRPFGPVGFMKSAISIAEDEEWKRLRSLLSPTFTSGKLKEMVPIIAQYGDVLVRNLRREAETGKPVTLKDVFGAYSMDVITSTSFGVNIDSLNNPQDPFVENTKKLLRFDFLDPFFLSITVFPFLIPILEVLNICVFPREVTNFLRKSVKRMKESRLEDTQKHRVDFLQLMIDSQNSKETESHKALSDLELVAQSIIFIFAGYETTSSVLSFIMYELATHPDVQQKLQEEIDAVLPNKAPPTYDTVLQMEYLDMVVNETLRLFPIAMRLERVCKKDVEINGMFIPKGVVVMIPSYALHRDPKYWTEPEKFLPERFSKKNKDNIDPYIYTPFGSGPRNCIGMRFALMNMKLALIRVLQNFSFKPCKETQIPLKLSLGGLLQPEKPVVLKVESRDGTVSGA
human FAS, sequence (P49327 whole entry): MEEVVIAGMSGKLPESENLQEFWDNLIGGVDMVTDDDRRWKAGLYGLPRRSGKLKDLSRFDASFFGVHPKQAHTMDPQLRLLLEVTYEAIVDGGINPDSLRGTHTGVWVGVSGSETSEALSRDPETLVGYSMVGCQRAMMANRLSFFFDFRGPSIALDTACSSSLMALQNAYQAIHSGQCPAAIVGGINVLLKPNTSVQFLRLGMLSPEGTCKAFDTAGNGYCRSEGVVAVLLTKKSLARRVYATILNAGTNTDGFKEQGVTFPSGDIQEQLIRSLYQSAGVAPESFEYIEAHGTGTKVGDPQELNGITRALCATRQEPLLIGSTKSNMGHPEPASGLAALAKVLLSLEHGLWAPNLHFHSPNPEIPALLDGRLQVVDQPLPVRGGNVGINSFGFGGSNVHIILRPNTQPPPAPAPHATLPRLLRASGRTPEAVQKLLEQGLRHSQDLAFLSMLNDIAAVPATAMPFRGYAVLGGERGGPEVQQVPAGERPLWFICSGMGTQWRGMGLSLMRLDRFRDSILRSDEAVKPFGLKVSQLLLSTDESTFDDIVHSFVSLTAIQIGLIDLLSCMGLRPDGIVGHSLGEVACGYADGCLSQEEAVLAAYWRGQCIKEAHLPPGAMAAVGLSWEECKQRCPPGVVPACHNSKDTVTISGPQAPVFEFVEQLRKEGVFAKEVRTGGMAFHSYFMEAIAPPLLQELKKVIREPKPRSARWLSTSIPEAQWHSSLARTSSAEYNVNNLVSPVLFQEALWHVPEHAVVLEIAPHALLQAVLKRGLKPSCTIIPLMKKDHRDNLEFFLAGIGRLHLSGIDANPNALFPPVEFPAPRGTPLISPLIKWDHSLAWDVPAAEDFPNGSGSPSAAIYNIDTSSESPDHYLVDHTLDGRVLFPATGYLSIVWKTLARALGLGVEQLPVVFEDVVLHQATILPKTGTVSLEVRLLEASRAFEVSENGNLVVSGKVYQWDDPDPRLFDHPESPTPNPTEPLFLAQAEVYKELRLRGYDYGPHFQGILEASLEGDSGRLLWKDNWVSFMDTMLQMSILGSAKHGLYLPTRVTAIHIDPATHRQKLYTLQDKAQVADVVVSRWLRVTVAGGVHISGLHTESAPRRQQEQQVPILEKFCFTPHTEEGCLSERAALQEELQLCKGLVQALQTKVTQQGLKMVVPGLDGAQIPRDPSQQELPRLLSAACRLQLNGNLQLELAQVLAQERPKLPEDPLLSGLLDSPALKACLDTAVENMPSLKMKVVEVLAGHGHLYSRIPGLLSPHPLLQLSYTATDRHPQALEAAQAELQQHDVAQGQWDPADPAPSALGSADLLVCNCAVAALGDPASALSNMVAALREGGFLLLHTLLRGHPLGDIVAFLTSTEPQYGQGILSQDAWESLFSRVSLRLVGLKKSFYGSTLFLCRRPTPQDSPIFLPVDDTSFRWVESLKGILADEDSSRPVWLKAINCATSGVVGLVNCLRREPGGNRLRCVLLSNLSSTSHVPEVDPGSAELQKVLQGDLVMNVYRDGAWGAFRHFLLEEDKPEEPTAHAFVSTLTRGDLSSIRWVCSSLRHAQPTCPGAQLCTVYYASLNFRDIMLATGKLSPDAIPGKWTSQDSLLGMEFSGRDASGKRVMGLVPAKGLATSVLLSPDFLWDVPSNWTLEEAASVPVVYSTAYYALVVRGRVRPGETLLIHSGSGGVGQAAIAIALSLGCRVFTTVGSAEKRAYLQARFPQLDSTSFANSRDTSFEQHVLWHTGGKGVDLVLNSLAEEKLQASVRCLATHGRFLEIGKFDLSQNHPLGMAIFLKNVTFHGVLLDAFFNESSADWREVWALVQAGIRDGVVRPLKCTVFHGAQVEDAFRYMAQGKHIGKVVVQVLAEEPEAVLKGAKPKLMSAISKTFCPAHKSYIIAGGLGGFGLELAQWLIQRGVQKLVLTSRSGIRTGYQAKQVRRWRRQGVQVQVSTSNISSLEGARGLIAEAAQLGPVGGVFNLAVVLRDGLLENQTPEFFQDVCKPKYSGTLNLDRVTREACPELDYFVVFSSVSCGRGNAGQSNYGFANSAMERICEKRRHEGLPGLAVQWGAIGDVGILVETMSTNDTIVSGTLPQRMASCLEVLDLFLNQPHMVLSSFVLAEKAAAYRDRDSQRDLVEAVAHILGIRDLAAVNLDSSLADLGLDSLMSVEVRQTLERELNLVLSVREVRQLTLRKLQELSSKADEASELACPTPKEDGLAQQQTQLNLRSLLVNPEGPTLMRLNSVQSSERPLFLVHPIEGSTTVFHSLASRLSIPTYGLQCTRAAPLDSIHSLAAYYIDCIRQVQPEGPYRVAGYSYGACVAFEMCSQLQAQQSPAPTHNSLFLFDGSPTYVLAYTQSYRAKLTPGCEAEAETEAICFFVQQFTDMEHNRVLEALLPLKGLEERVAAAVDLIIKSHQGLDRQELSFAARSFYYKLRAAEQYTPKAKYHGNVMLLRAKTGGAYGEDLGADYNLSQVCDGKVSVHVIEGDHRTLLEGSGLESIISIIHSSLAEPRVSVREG
hERG potassium channel, sequence (Q12809 whole entry): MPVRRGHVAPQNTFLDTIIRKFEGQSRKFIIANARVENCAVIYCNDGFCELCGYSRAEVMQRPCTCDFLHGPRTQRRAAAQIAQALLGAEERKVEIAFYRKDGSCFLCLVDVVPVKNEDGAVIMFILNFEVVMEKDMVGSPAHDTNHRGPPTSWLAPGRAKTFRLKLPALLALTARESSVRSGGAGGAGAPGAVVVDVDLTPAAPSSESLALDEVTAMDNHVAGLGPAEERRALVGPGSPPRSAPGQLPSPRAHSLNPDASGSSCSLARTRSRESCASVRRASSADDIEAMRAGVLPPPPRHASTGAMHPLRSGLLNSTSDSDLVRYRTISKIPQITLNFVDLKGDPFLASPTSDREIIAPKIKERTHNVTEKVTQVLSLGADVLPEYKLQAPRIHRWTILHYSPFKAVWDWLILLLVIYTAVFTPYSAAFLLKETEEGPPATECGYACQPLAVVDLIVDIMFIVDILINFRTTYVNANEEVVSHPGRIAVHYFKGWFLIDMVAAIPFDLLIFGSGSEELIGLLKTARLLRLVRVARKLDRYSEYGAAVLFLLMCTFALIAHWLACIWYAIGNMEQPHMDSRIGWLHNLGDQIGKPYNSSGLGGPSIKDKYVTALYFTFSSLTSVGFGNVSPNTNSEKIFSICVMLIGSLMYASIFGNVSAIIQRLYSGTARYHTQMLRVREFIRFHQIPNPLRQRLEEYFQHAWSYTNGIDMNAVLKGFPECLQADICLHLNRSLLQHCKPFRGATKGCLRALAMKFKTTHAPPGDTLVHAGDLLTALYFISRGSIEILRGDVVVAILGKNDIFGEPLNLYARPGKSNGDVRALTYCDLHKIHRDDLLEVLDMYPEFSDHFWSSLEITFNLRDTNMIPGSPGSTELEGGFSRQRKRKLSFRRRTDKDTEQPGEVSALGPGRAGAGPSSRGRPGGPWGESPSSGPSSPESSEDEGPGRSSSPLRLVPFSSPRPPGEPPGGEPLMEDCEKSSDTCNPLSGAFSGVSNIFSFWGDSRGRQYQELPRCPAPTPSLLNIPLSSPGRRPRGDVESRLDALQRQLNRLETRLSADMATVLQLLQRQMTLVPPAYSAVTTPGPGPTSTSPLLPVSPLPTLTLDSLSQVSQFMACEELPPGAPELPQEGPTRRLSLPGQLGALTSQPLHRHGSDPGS

Structure (SMILES): Cc1csc([C@](C)(O)c2nnc(Nc3ccn(Cc4csc(C)n4)n3)s2)n1 [GSK693, (S)-1-(4-methylthiazol-2-yl)-1-(5-((1-((2-methylthiazol-4-yl)methyl)-1H-pyrazol-3-yl)amino)-1,3,4-thiadiazol-2-yl)ethanol]
- solubility [1]: 413 µM (≈ 173 µg/mL)
- Vd ([2]; 4 mg/kg): 2.58 L/kg
- clearance ([2]; 4 mg/kg): 83 mL/min/kg
- half-life ([2]; 4 mg/kg): 56.4 min
- Cmax ([2]; 100 mg/kg): 37300 ng/mL
- Tmax ([2]; 100 mg/kg): 25.2 min
- Cell Health (Memb.; Nucleus; Mitoch. ) [3]: > 199.5 µM
- IC50 ([4]; CYP 3A4 IC50 VG, VG substrate): 25.1 µM
- IC50 ([4]; CYP 3A4 IC50 VR, VR substrate): > 50.1 µM
- IC50 [5]: 0.007 µM
- MIC [6]: 0.2 µM (≈ 0.0839 µg/mL)
- Maximal no lethal dose (MNLD) [7]: higher than 1000 mg/kg
- DNAUC ([8]; Table 3 lead): 935.8 ng·h/ml per mg/kg
- MIC [9]: 0.2 µM (≈ 0.0839 µg/mL)
- IC50 [10]: > 50 µM
- Bacterial load reduction ([11]; 100 mg/kg oral): 4 log10 colony forming units (CFU) per lung
- Clearance of bacilli (Log CFU) ([11]; oral 30, 100 and 300 mg/kg, P < 0.001): significant clearance of bacilli compared with the controls
- Ames test [12]: Negative
- In vitro Cli mouse [13]: 2.1 mL/min/g
- Total fraction of cells undergoing lysis ([14]; 5 μM GSK693 for 10 days, N = 32 microcolonies): 53 ± 20%
- Regrowth after washout of the drug ([14]; 5 μM for 10 days, washout 7 days): None of the intact bacteria exhibited regrowth
- Intact cells PI-positive after exposure [14, 22]: About 22%
- Intact cells still able to exclude PI [14, 22]: 78%
- In vitro Cli human [15]: 0.2 mL/min/g
- HepG2 cytotoxicity Tox 50 [16]: > 50 µM

Structure (SMILES): Cc1ccn(C(C)c2nnc(Nc3ccn(Cc4c(F)cccc4Cl)n3)s2)n1 (stereo not shown) [GSK613, N-(1-(2-chloro-6-fluorobenzyl)-1H-pyrazol-3-yl)-5-(1-(3-methyl-1H-pyrazol-1-yl)ethyl)-1,3,4-thiadiazol-2-amine]
- solubility [1]: 10 µM (≈ 4.18 µg/mL)
- Vd ([2]; 0.5 mg/kg): 2.5 L/kg
- clearance ([2]; 0.5 mg/kg): 157 mL/min/kg
- half-life ([2]; 0.5 mg/kg): 18 min
- Cmax ([2]; 50 mg/kg): 94.3 ng/mL
- Tmax ([2]; 50 mg/kg): 45 min
- MIC [17]: ≥ 64 µg/mL
- IC50 [5]: 0.007 µM
- Activity against human FAS [18]: inactive
- DNAUC (dose normalized exposure) ([8]; Table 1 hits): 5 ng·h/ml per mg/kg
- MIC [9]: ≤ 1 µM
- Mode of inhibition versus NADH [19]: uncompetitive with NADH
- Mode of inhibition versus fatty acid substrate [19]: competes with the fatty acid substrate
- Shift in MIC in strains overexpressing the target [20]: ≥ 4 fold
- In vitro Cli mouse [13]: 11.9 mL/min/g
- In vitro Cli human [15]: 2.9 mL/min/g
- HepG2 cytotoxicity Tox 50 [16]: > 100 µM

Structure (SMILES): COc1c(N2C[C@@H]3CCCN[C@@H]3C2)c(F)cc2c(=O)c(C(=O)O)cn(C3CC3)c12 [moxifloxacin, reference compound]
- Bacterial load reduction ([11]; 30 mg/kg): 4 log10 colony forming units (CFU) per lung

Structure (SMILES): NNC(=O)c1ccncc1 [INH, isoniazid]
- Clearance of bacilli (Log CFU) ([21]; P < 0.001): significant clearance of bacilli compared with the controls
- Clearance of bacilli (Log CFU) ([21]; P < 0.001, listed as isoniazid): clear efficacy
- Total fraction of cells undergoing lysis ([14]; INH 0.5 µg/ml, N = 41 microcolonies): 42 ± 15%

From PMC4919555 (EBioMedicine, 2016)
